In PMC9738591, “N-[1,3-Dialkyl(aryl)-2-oxoimidazolidin-4-ylidene]-aryl(alkyl)sulphonamides as Novel Selective Human Cannabinoid Type 2 Receptor (hCB2R) Ligands; Insights into the Mechanism of Receptor Activation/Deactivation” (Molecules, 2022):

Legend:
human recombinant CB1R = biological target: T1, human recombinant CB1R (Homo sapiens, UniProt P21554); test: Competition binding assay, displacement of [3H]-CP-55,940 from membranes of HEK-293 cells overexpressing CB1R; conditions: for Ki: [3H]-CP-55,940 displacement, HEK-293 membranes, 90 min at 30 °C, Cheng-Prusoff, read-out: Ki hCB1R (µM ± S.E.); for inhibition at 10 µM: read-out: % Displacement/ Max. Conc. Tested, hCB1R
T1 construct: purchased Perkin-Elmer, Italy; host or cells: HEK-293 cells (membranes)
Procedure: (§1) The binding affinities (Ki values) of the compounds for human recombinant hCB1R and hCB2R were determined as previously described, using SR144528 as a reference compound [30], and are reported in Table 1.
(§2) Compound affinity for CB1R and CB2R was measured as previously reported. […] Competition curves were performed by displacing [^3H]-CP-55 940 with increasing concentrations of compounds (0.1 nM–10 or 25 μM). […] All compounds were tested following the procedure described by the manufacturer (Perkin-Elmer, Italy). Displacement curves were generated by incubating drugs with [^3H]-CP-55 940 for 90 min at 30 °C. Ki values were calculated by applying the Cheng−Prusoff equation to the IC50 values for the displacement of the bound radioligand by increasing concentrations of the test compound. Data represent the mean values of three independent experiments performed in duplicate and are expressed as the average of Ki (µM) ± standard deviation. Data were analyzed using PRISM.9.3 software (GraphPad Software Inc, San Diego, CA, USA).

human CB2R = human CB2R (Homo sapiens, UniProt P34972); test: Competition binding assay, displacement of [3H]-CP-55,940 from membranes of HEK-293 cells overexpressing CB2R; design: purchased Perkin-Elmer, Italy; host or cells: HEK-293 cells (membranes); conditions: for Ki: [3H]-CP-55,940 displacement, HEK-293 membranes, 90 min at 30 °C, Cheng-Prusoff, read-out: Ki hCB2R (µM ± S.E.); for inhibition at 10 µM: max conc. tested 10 µM, read-out: % Displacement/ Max Conc. Tested, hCB2R (converted)
Procedure: as §1, §2

T1 sequence (P21554 whole entry): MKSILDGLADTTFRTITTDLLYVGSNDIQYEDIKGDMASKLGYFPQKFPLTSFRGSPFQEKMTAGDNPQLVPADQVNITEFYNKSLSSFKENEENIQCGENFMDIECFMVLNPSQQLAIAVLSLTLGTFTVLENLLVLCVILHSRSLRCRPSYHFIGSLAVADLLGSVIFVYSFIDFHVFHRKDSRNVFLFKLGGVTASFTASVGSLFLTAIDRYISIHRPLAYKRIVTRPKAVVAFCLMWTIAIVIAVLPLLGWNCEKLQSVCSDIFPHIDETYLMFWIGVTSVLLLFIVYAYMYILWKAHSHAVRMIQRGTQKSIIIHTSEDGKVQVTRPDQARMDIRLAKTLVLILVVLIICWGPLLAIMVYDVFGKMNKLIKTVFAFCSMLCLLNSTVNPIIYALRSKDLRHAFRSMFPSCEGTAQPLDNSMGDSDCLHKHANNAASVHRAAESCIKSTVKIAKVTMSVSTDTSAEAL
human CB2R, sequence (P34972 whole entry): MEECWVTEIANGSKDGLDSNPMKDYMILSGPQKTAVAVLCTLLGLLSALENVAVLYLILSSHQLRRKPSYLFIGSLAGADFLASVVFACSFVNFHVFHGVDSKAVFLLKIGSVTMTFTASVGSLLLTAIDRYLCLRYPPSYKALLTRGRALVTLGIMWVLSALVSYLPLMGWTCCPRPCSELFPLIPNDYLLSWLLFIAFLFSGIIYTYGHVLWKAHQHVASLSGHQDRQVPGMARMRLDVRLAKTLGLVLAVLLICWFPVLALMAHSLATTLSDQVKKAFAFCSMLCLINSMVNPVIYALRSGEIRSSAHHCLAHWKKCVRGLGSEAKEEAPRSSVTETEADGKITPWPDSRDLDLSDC

Row | SMILES | Ki (human recombinant CB1R) [µM] | inhibition at 10 µM (human recombinant CB1R) [%] | melting point [°C] | Ki (human CB2R) [µM] | inhibition at 10 µM (human CB2R) [%]
1 | CC(C)(C)N1CC(=NS(=O)(=O)c2ccc(Br)cc2)N(CC2CC2)C1=O [Compound 10d, 4-Bromo-N-[1-tert-Butyl-3-cyclopropylmethyl-2-oxoimidazolidin-4-ylidene]benzenesulfonamide] | > 10 | 22.2 | 98 to 98.5 | 0.83 ± 0.25 | 77.2
2 | Cc1cc(C)c(S(=O)(=O)N=C2CN(C(C)(C)C)C(=O)N2CC2CC2)c(C)c1 [Compound 10f, N-[1-tert-Butyl-3-cyclopropylmethyl-2-oxoimidazolidin-4-ylidene]-2,4,6-trimethylbenzenesulfonamide] | > 10 | 15.4 | 149 to 150 | 0.63 ± 0.14 | 81.3
3 | COCCN1C(=O)N(C(C)(C)C)CC1=NS(C)(=O)=O [Compound 11a, N-[1-tert-Butyl-3-(2-methoxyethyl)-2-oxoimidazolidin-4-ylidene]methanesulfonamide] | > 10 | 65.3 | 70.5 to 71 | > 10 | 14.1
4 | COCCN1C(=O)N(C(C)(C)C)CC1=NS(=O)(=O)c1ccccc1 [Compound 11b, N-[1-tert-Butyl-3-(2-methoxyethyl)-2-oxoimidazolidin-4-ylidene]benzenesulfonamide] | > 10 | 52.6 | 104.5 to 105 | > 10 | 21.2
5 | COCCN1C(=O)N(C(C)(C)C)CC1=NS(=O)(=O)c1ccc(C)cc1 [Compound 11c, N-[1-tert-Butyl-3-(2-methoxyethyl)-2-oxoimidazolidin-4-ylidene]-4-methylbenzene-1-sulfonamide] | > 10 | 57 | 106 to 107 | > 10 | 33.4
6 | COCCN1C(=O)N(C(C)(C)C)CC1=NS(=O)(=O)c1ccc(Br)cc1 [Compound 11d, 4-Bromo-N-[1-tert-butyl-3-(2-methoxyethyl)-2-oxoimidazolidin-4-ylidene]benzenesulfonamide] | > 10 | 50.1 | 103.5 to 104 | > 10 | 42.7
7 | COCCN1C(=O)N(C(C)(C)C)CC1=NS(=O)(=O)c1cccc(Br)c1 [Compound 11e, 3-Bromo-N-[1-tert-butyl-3-(2-methoxyethyl)-2-oxoimidazolidin-4-ylidene]benzenesulfonamide] | > 10 | 10 | 104 to 105 | > 10 | 41.1
8 | COCCN1C(=O)N(C(C)(C)C)CC1=NS(=O)(=O)c1c(C)cc(C)cc1C [Compound 11f, N-[1-tert-Butyl-3-(2-methoxyethyl)-2-oxoimidazolidin-4-ylidene]-2,4,6-trimethylbenzene-1-sulfonamide] | > 10 | 55.7 | 141 to 143.5 | 3.45 ± 0.95 | 64.8
9 | COCCN1C(=O)N(C(C)(C)C)CC1=NS(=O)(=O)c1cccc2ccccc12 [Compound 11g, N-[1-tert-Butyl-3-(2-methoxyethyl)-2-oxoimidazolidin-4-ylidene]naphthalene-1-sulfonamide] | > 10 | 13.5 | 110.5 to 111 | 1.66 ± 0.2 | 78.7
10 | COCCN1C(=O)N(C(C)(C)C)CC1=NS(=O)(=O)c1ccc2ccccc2c1 [Compound 11h, N-[1-tert-Butyl-3-(2-methoxyethyl)-2-oxoimidazolidin-4-ylidene]naphthalene-2-sulfonamide] | > 10 | 45.3 | 129.5 to 130.5 | > 10 | 40.1
11 | Cc1ccc(S(=O)(=O)N=C2CN(C34CC5CC(CC(C5)C3)C4)C(=O)N2CC2CC2)cc1 [Compound 12c, N-[1-Adamant-1-yl-3-cyclopropylmethyl-2-oxoimidazolidin-4-ylidene]-4-methyl-1-benzenesulfonamide] | > 10 | 34.6 | 188.5 to 189 | > 10 | 20.6
12 | O=C1N(CC2CC2)C(=NS(=O)(=O)c2ccc(Br)cc2)CN1C12CC3CC(CC(C3)C1)C2 [Compound 12d, N-[1-Adamant-1-yl-3-cyclopropylmethyl-2-oxoimidazolidin-4-ylidene]-4-bromo-1-benzenesulfonamide] | > 10 | 47.9 | 176 to 176.5 | > 10 | 32.5
13 | Cc1cc(C)c(S(=O)(=O)N=C2CN(C34CC5CC(CC(C5)C3)C4)C(=O)N2CC2CC2)c(C)c1 [Compound 12f, N-[1-Adamant-1-yl-3-cyclopropylmethyl-2-oxoimidazolidin-4-ylidene]-2,4,6-trimethyl-1-benzenesulfonamide] | > 10 | 59.2 | 166.5 to 167.5 | > 10 | 40.2
14 | O=C1N(CC2CC2)/C(=N/S(=O)(=O)c2cccc3ccccc23)CN1C12CC3CC(CC(C3)C1)C2 [Compound 12g, N-[1-Adamant-1-yl-3-cyclopropylmethyl-2-oxoimidazolidin-4-ylidene]naphtalene-1-sulfonamide] | > 10 | 12.8 | 188.5 to 189 | > 10 | 45.6
15 | O=C1N(CC2CC2)/C(=N/S(=O)(=O)c2ccc3ccccc3c2)CN1C12CC3CC(CC(C3)C1)C2 [Compound 12h, N-[1-Adamant-1-yl-3-cyclopropylmethyl-2-oxoimidazolidin-4-ylidene]naphtalene-2-sulfonamide] | > 10 | 38.5 | 167 to 167.5 | > 10 | 17.7
